Tested on: Spontaneously hypertensive rats (SHR)
Test: Acute Efficacy in Spontaneously Hypertensive Rats (SHR), telemetry blood pressure
Assay type: in vivo, rat
Conditions: single oral dose 0.1 mpk P.O.
How it was run: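 Male SHR with aortic telemetry catheters, 14-day recovery, conscious and freely moving; single oral gavage in 10% transcutol/20% Cremophor/70% water. BP sampled 30 s every 10 min, hourly averages minus prior-day vehicle baseline; value is maximum peak SBP decrease at stated mg/kg PO dose.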

Structure (SMILES) | Maximum peak decrease of systolic blood pressure (SBP) in SHR, Category
CC1(C(=O)NC2COC2)C(=O)Nc2nc(-c3nn(CCC(F)(F)C(F)(F)F)c4nc(Cl)ccc34)nc(N)c21 (centres unmarked) [Example 230, 4-amino-2-[6-chloro-1-(3,3,4,4,4-pentafluorobutyl)-1H-pyrazolo[3,4-b]pyridin-3-yl]-5-methyl-N-oxetan-3-yl-6-oxo-6,7-dihydro-5H-pyrrolo[2,3-d]pyrimidine-5-carboxamide] | A (Category A=SBP in SHRs<25 mmHg)
CC1(C(=O)NC2CC2)C(=O)Nc2nc(-c3nn(CCC(F)(F)C(F)F)c4ncccc34)nc(N)c21 (centres unmarked) [Example 237, 4-amino-N-cyclopropyl-5-methyl-6-oxo-2-[1-(3,3,4,4-tetrafluorobutyl)-1H-pyrazolo[3,4-b]pyridin-3-yl]-6,7-dihydro-5H-pyrrolo[2,3-d]pyrimidine-5-carboxamide] | B (Category B=SBP in SHRs 25-40 mmHg)

Same assay, conditions: single oral dose 0.3 mpk P.O.

Structure (SMILES) | Maximum peak decrease of systolic blood pressure (SBP) in SHR, Category
Cn1cc(NC(=O)C2(C)C(=O)Nc3nc(-c4nn(CCC(F)(F)C(F)(F)F)c5cc(Cl)ccc45)nc(N)c32)cn1 (centres unmarked) [Example 217, 4-amino-2-[6-chloro-1-(3,3,4,4,4-pentafluorobutyl)-1H-indazol-3-yl]-5-methyl-N-(1-methyl-1H-pyrazol-4-yl)-6-oxo-6,7-dihydro-5H-pyrrolo[2,3-d]pyrimidine-5-carboxamide] | C (Category C=SBP in SHRs>40 mmHg)
C#CC1(C)C(=O)Nc2nc(-c3nn(CCC(F)(F)C(F)(F)F)c4ncccc34)nc(N)c21 (centres unmarked) [Example 219, 4-amino-5-ethynyl-5-methyl-2-[1-(3,3,4,4,4-pentafluorobutyl)-1H-pyrazolo[3,4-b]pyridin-3-yl]-5,7-dihydro-6H-pyrrolo[2,3-d]pyrimidin-6-one] | C (Category C=SBP in SHRs>40 mmHg)
CC1(C(=O)NC2CC2)C(=O)Nc2nc(-c3nn(CCCC(F)(F)F)c4ncccc34)nc(N)c21 (centres unmarked) [Example 222, 4-amino-N-cyclopropyl-5-methyl-6-oxo-2-[1-(4,4,4-trifluorobutyl)-1H-pyrazolo[3,4-b]pyridin-3-yl]-6,7-dihydro-5H-pyrrolo[2,3-d]pyrimidine-5-carboxamide] | C (Category C=SBP in SHRs>40 mmHg)
CC1(C(=O)NC2CC2)C(=O)Nc2nc(-c3nn(CCC(F)(F)C(F)(F)F)c4nc(C5CC5)ccc34)nc(N)c21 (centres unmarked) [Example 223, 4-amino-N-cyclopropyl-2-[6-cyclopropyl-1-(3,3,4,4,4-pentafluorobutyl)-1H-pyrazolo[3,4-b]pyridin-3-yl]-5-methyl-6-oxo-6,7-dihydro-5H-pyrrolo[2,3-d]pyrimidine-5-carboxamide] | B (Category B=SBP in SHRs 25-40 mmHg)
CC1(c2nnc(C3CC3)o2)C(=O)Nc2nc(-c3nn(CCCC(F)(F)F)c4ncccc34)nc(N)c21 (centres unmarked) [Example 225, 4-amino-5-(5-cyclopropyl-1,3,4-oxadiazol-2-yl)-5-methyl-2-[1-(4,4,4-trifluorobutyl)-1H-pyrazolo[3,4-b]pyridin-3-yl]-5,7-dihydro-6H-pyrrolo[2,3-d]pyrimidin-6-one] | C (Category C=SBP in SHRs>40 mmHg)
CC1(C(=O)Nc2ccccn2)C(=O)Nc2nc(-c3nn(CCCC(F)(F)F)c4ncccc34)nc(N)c21 (centres unmarked) [Example 226, 4-amino-5-methyl-6-oxo-N-pyridin-2-yl-2-[1-(4,4,4-trifluorobutyl)-1H-pyrazolo[3,4-b]pyridin-3-yl]-6,7-dihydro-5H-pyrrrolo[2,3-d]pyrimidine-5-carboxamide] | B (Category B=SBP in SHRs 25-40 mmHg)
CC1(C(=O)Nc2cccnc2)C(=O)Nc2nc(-c3nn(CCCC(F)(F)F)c4ncccc34)nc(N)c21 (centres unmarked) [Example 227] | B (Category B=SBP in SHRs 25-40 mmHg)
CC1(C(N)=O)C(=O)Nc2nc(-c3nn(CCCC(F)(F)F)c4ncccc34)nc(N)c21 (centres unmarked) [Example 228, 4-amino-5-methyl-6-oxo-2-[1-(4,4,4-trifluorobutyl)-1H-pyrazolo[3,4-b]pyridin-3-yl]-6,7-dihydro-5H-pyrrolo[2,3-d]pyrimidine-5-carboxamide] | A (Category A=SBP in SHRs<25 mmHg)
CC1(C(=O)NC2COC2)C(=O)Nc2nc(-c3nn(CCC(F)(F)C(F)(F)F)c4ncccc34)nc(N)c21 (centres unmarked) [Example 231, 4-amino-5-methyl-N-oxetan-3-yl-6-oxo-2-[1-(3,3,4,4,4-pentafluorobutyl)-1H-pyrazolo[3,4-b]pyridin-3-yl]-6,7-dihydro-5H-pyrrolo[2,3-d]pyrimidine-5-carboxamide] | C (Category C=SBP in SHRs>40 mmHg)
CC1(c2ccccn2)C(=O)Nc2nc(-c3nn(CCC(F)(F)F)c4ncccc34)nc(N)c21 (centres unmarked) [Example 232, 4-amino-5-methyl-5-pyridin-2-yl-2-[1-(3,3,3-trifluoropropyl)-1H-pyrazolo[3,4-b]pyridin-3-yl]-5,7-dihydro-6H-pyrrolo[2,3-d]pyrimidin-6-one] | B (Category B=SBP in SHRs 25-40 mmHg)
CC1(C(=O)Nc2cccnc2)C(=O)Nc2nc(-c3nn(CCOC(F)(F)F)c4ncccc34)nc(N)c21 (centres unmarked) [Example 233, 4-amino-5-methyl-6-oxo-N-pyridin-3-yl-2-{1-[2-(trifluoromethoxy)ethyl]-1H-pyrazolo[3,4-b]pyridin-3-yl}-6,7-dihydro-5H-pyrrolo[2,3-d]pyrimidine-5-carboxamide] | B (Category B=SBP in SHRs 25-40 mmHg)
CC1(C(=O)Nc2cccnc2)C(=O)Nc2nc(-c3nn(CCC(F)(F)C(F)(F)F)c4ncccc34)nc(N)c21 (centres unmarked) [Example 234, 4-amino-5-methyl-6-oxo-2-[1-(3,3,4,4,4-pentafluorobutyl)-1H-pyrazolo[3,4-b]pyridin-3-yl]-N-pyridin-3-yl-6,7-dihydro-5H-pyrrolo[2,3-d]pyrimidine-5-carboxamide] | C (Category C=SBP in SHRs>40 mmHg)
CC1(C(=O)NC2CCOC2)C(=O)Nc2nc(-c3nn(CCC(F)(F)C(F)(F)F)c4ncccc34)nc(N)c21 (centres unmarked) [Example 235, 4-amino-5-methyl-6-oxo-2-[1-(3,3,4,4,4-pentafluorobutyl)-1H-pyrazolo[3,4-b]pyridin-3-yl]-N-(tetrahydrofuran-3-yl)-6,7-dihydro-5H-pyrrolo[2,3-d]pyrimidine-5-carboxamide] | B (Category B=SBP in SHRs 25-40 mmHg)
CC1(c2nncs2)C(=O)Nc2nc(-c3nn(CCCC(F)(F)F)c4ncccc34)nc(N)c21 (centres unmarked) [Example 236, 4-amino-5-methyl-5-(1,3,4-thiadiazol-2-yl)-2-[1-(4,4,4-trifluorobutyl)-1H-pyrazolo[3,4-b]pyridin-3-yl]-5,7-dihydro-6H-pyrrolo[2,3-d]pyrimidin-6-one] | B (Category B=SBP in SHRs 25-40 mmHg)
CC1(C(=O)NC2CC2)C(=O)Nc2nc(-c3nn(CCC(F)F)c4ncccc34)nc(N)c21 (centres unmarked) [Example 238, 4-amino-N-cyclopropyl-2-[1-(3,3-difluoropropyl)-1H-pyrazolo[3,4-b]pyridin-3-yl]-5-methyl-6-oxo-6,7-dihydro-5H-pyrrolo[2,3-d]pyrimidine-5-carboxamide] | B (Category B=SBP in SHRs 25-40 mmHg)
Cc1ccc2c(-c3nc(N)c4c(n3)NC(=O)C4(C)C(=O)NC3CCOCC3)nn(CCC(F)(F)C(F)(F)F)c2n1 (centres unmarked) [Example 239, 4-amino-5-methyl-2-[6-methyl-1-(3,3,4,4,4-pentafluorobutyl)-1H-pyrazolo[3,4-b]pyridin-3-yl]-6-oxo-N-(tetrahydro-2H-pyran-4-yl)-6,7-dihydro-5H-pyrrolo[2,3-d]pyrimidine-5-carboxamide] | A (Category A=SBP in SHRs<25 mmHg)

Same assay, conditions: single oral dose 1 mpk P.O.

Structure (SMILES) | Maximum peak decrease of systolic blood pressure (SBP) in SHR, Category
Cn1ccc(NC(=O)C2(C)C(=O)Nc3nc(-c4nn(CCC(F)(F)C(F)(F)F)c5ncccc45)nc(N)c32)n1 (centres unmarked) [Example 218, 4-amino-5-methyl-N-(1-methyl-1H-pyrazol-3-yl)-6-oxo-2-[1-(3,3,4,4,4-pentafluorobutyl)-1H-pyrazolo[3,4-b]pyridin-3-yl]-6,7-dihydro-5H-pyrrolo[2,3-d]pyrimidine-5-carboxamide] | C (Category C=SBP in SHRs>40 mmHg)
COc1ccc2c(-c3nc(N)c4c(n3)NC(=O)C4(C)C(N)=O)nn(CCC(F)(F)C(F)(F)F)c2n1 (centres unmarked) [Example 220, 4-amino-2-[6-methoxy-1-(3,3,4,4,4-pentafluorobutyl)-1H-pyrazolo[3,4-b]pyridin-3-yl]-5-methyl-6-oxo-6,7-dihydro-5H-pyrrolo[2,3-d]pyrimidine-5-carboxamide] | B (Category B=SBP in SHRs 25-40 mmHg)
CC1(C(=O)NC2CC2)C(=O)Nc2nc(-c3nn(CCC(F)(F)F)c4nc(C#N)ccc34)nc(N)c21 (centres unmarked) [Example 221, 4-amino-2-[6-cyano-1-(3,3,3-trifluoropropyl)-1H-pyrazolo[3,4-b]pyridin-3-yl]-N-cyclopropyl-5-methyl-6-oxo-6,7-dihydro-5H-pyrrolo[2,3-d]pyrimidine-5-carboxamide] | C (Category C=SBP in SHRs>40 mmHg)
CC1(C(=O)NC2CC2)C(=O)Nc2nc(-c3nn(CCC(F)(F)F)c4nc(C5CC5)ccc34)nc(N)c21 (centres unmarked) [Example 224, 4-amino-N-cyclopropyl-2-[6-cyclopropyl-1-(3,3,3-trifluoropropyl)-1H-pyrazolo[3,4-b]pyridin-3-yl]-5-methyl-6-oxo-6,7-dihydro-5H-pyrrolo[2,3-d]pyrimidine-5-carboxamide] | B (Category B=SBP in SHRs 25-40 mmHg)
Cn1cc(C2(C)C(=O)Nc3nc(-c4nn(CCC(F)(F)C(F)(F)F)c5cc(Cl)ccc45)nc(N)c32)cn1 (centres unmarked) [Example 229, 4-amino-2-[6-chloro-1-(3,3,4,4,4-pentafluorobutyl)-1H-indazol-3-yl]-5-methyl-5-(1-methyl-1H-pyrazol-4-yl)-5,7-dihydro-6H-pyrrolo[2,3-d]pyrimidin-6-one] | C (Category C=SBP in SHRs>40 mmHg)
